Reference: patent US20240262803A1, “COMPOUNDS, COMPOSITIONS AND METHODS OF TREATING DISORDERS” (Chungdu Anticancer Bioscience Ltd, priority 2021, published 2024)
Entries after “also recorded” stand apart in the source; their conditions may differ. Read-outs that look alike come from different tables or passages of the source.

Key:
[1] = test system: gastric cancer cell line NCI-N87; experiment: Minimal effective concentration that elicits polyploidy, NCI-N87; format: cell-based; settings: Homo sapiens, read-out: MECP: Minimal effective concentration that elicits polyploidy
[2] = test system: lung cancer cell line A549; experiment: Minimal effective concentration that elicits polyploidy, A549; format: cell-based; settings: Homo sapiens, read-out: MECP: Minimal effective concentration that elicits polyploidy
RPEMYC^H2B-GFP cells [3] = experiment: Mechanism-informed phenotypic screening assay (mitotic arrest, polyploidy; GE IN-Cell Analyzer 2000); format: cell-based; settings: 20 nM to 20 μM, 24, 48 or 72 hours, read-out: Min. Effective conc. for polyploidy (≥5%)
Summary of the method: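 Cells expressing Histone 2B-EGFP (RPEMYC^H2B-GFP) were plated 18-24 h before exposure to compounds at 20 nM to 20 μM. At 24, 48 or 72 h, imaging scored mitotic arrest or change in DNA content. Value is the lowest concentration giving polyploid accumulation at 48 h.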

[4] = test system: lung cancer cell line NCI-H23; experiment: Minimal effective concentration that elicits polyploidy, NCI-H23; format: cell-based; settings: Homo sapiens, read-out: MECP: Minimal effective concentration that elicits polyploidy
[5] = test system: liver cancer cell line T2 HCC; experiment: MTT assay of cellular proliferation, T2 HCC; format: cell-based; settings: Mus musculus, read-out: EC50: Concentration that inhibits 50% of proliferation
Summary of the method: (§1)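 In this viability read-out, mitochondrial reductase converts MTT to formazan, measured at 570 nm after 3˜4 h. Cells are treated at 20˜30% confluence with 1 nM to 10 μM compound, and the EC50 is the concentration halving proliferation.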

[6] = test system: human colon cancer cell line HCT116; experiment: Xenograft assay, HCT116; format: in vivo; settings: HCT116 subcutaneous xenograft, Nu/Nu mice, oral gavage twice a day for 9 days, FIG. 4
Experimental: (§2) Xenografts were initiated in immunocompromised (Nu/Nu) mice with the human lung adenocarcinoma cell line NCI-H23 (FIG. 3) and the human colon cancer cell line HCT116 (FIG. 4). Five million cells were injected subcutaneously into each mouse and treatment was initiated when the average tumor volumes reached 150 mm3 (n=5/groups). Tumor-bearing mice were randomized into different groups to receive either vehicle or indicated compounds. The compounds were administered through oral gavage twice a day for 9 days. Day 0 on the x-axis indicates the day that treatment was initiated. For these experiments, all compounds were first dissolved in DMSO and then diluted 1:10 into a mixture containing 50% PEG300 and 49% PBS, 1% Tween 80, pH2.2. 100 ul of drug solution was administered with each dose. Tumor volumes were determined once every three days and are calculated from digital caliper raw data by using the formula: Volume (mm3)=(L×W^2)/2. The value W (Width) is the smaller of two perpendicular tumor axes and the value L (Length) is the larger of two perpendicular axes. Mean tumor volume growth curves and means are calculated for each treatment group.

[7] = test system: colon cancer cell line SW460; experiment: MTT assay of cellular proliferation, SW460; format: cell-based; settings: Homo sapiens, SW480; read-out: EC50: Concentration that inhibits 50% of proliferation
Summary of the method: as §1

[8] = test system: human lung adenocarcinoma cell line NCI-H23; experiment: Xenograft assay, NCI-H23; format: in vivo; settings: NCI-H23 subcutaneous xenograft, Nu/Nu mice, oral gavage twice a day for 9 days, FIG. 3
Experimental: as §2

SW480 = experiment: Minimal effective concentration that elicits polyploidy, SW480; format: cell-based; settings: Homo sapiens, read-out: MECP: Minimal effective concentration that elicits polyploidy
[9] = test system: colon cancer cell line HCT116; experiment: Minimal effective concentration that elicits polyploidy, HCT116; format: cell-based; settings: Homo sapiens, HCT-116, read-out: MECP: Minimal effective concentration that elicits polyploidy
[10] = test system: liver cancer cell line T2 HCC; experiment: Minimal effective concentration that elicits polyploidy, T2 HCC; format: cell-based; settings: Mus musculus, read-out: MECP: Minimal effective concentration that elicits polyploidy
[11] = test system: cervical cancer cell line Hela; experiment: MTT assay of cellular proliferation, Hela; format: cell-based; settings: Homo sapiens, read-out: EC50: Concentration that inhibits 50% of proliferation
Summary of the method: as §1

[12] = test system: colon cancer cell line HCT116; experiment: MTT assay of cellular proliferation, HCT116; format: cell-based; settings: Homo sapiens, HCT-116, read-out: EC50: Concentration that inhibits 50% of proliferation
Summary of the method: as §1

[13] = test system: gastric cancer cell line NCI-N87; experiment: MTT assay of cellular proliferation, NCI-N87; format: cell-based; settings: Homo sapiens, read-out: EC50: Concentration that inhibits 50% of proliferation
Summary of the method: as §1

[14] = test system: cervical cancer cell line Hela; experiment: Minimal effective concentration that elicits polyploidy, Hela; format: cell-based; settings: Homo sapiens, read-out: MECP: Minimal effective concentration that elicits polyploidy
RPEMYC^H2B-GFP cells [15] = experiment: Mechanism-informed phenotypic screening assay (mitotic arrest, polyploidy; GE IN-Cell Analyzer 2000); format: cell-based; settings: 20 nM to 20 μM, 24, 48 or 72 hours, read-out: Mitotic Arrest (≥5%)
[16] = test system: breast cancer cell line MDA-MB-231; experiment: Minimal effective concentration that elicits polyploidy, MDA-MB-231; format: cell-based; settings: Homo sapiens, read-out: MECP: Minimal effective concentration that elicits polyploidy
[17] = test system: lung cancer cell line A549; experiment: MTT assay of cellular proliferation, A549; format: cell-based; settings: Homo sapiens, read-out: EC50: Concentration that inhibits 50% of proliferation
Summary of the method: as §1

[18] = test system: lung cancer cell line NCI-H23; experiment: MTT assay of cellular proliferation, NCI-H23; format: cell-based; settings: Homo sapiens, read-out: EC50: Concentration that inhibits 50% of proliferation
Summary of the method: as §1

[19] = test system: breast cancer cell line MDA-MB-231; experiment: MTT assay of cellular proliferation, MDA-MB-231; format: cell-based; settings: Homo sapiens, read-out: EC50: Concentration that inhibits 50% of proliferation
Summary of the method: as §1

[20] = test system: lung cancer cell line NCI-H596; experiment: MTT assay of cellular proliferation, NCI-H596; format: cell-based; settings: Homo sapiens, read-out: EC50: Concentration that inhibits 50% of proliferation
Experimental: (§3) Six lung cancer cell lines (NCI-H23, NCI-H460, NCI-H596, NCI-H2170, Calu-6 and A549), two colon cancer cell lines (HCT116 and SW460), one breast cancer cell line MDA-MB-231, one gastric cancer cell line NCI-N87, one prostate cancer cell line DU145, one cervical cancer cell line Hela, and one glioblastoma cell line T98G were obtained from ATCC. The T2 HCC cell line was derived from a mouse liver cancer model initiated by a transgene of MYC (Reference). All cell lines were cultured in DMEM (Gibco, Cleveland, TN, USA) supplemented with 5% fetal bovine serum (Gibco), penicillin (100 U/mL)-streptomycin (100 μg/mL) (Gibco, Cat. No. 15140-122), 2 mM L-glutamine (Gibco, 200 mM solution, Cat. No. 25030081), and 1 mM sodium pyruvate (Gibco, 100 mM solution, Cat. No. 11360070) at 37° C. in a humidified incubator that was maintained at 5% CO2.
(§4) The MTT assay measures cellular metabolic activity as a proxy for cell viability and involves the conversion of the water-soluble yellow dye MTT [3-(4,5-dimethylthiazol-2-yl)-2,5-diphenyltetrazolium bromide] into an insoluble purple formazan by the action of mitochondrial reductase. Formazan is then solubilized and its concentration is determined by measuring the optical density (OD) value at a wavelength of 570 nm. The value is in proportional to the number of live cells with excellent linearity up to ˜10^6 cells per well. The MTT assay was used to determine the EC50 value, the concentration of a compound that leads to 50% inhibition of cellular proliferation. Briefly, cells were split when growing to the mid-Log phase. Cells in 100 μL of culture medium were seeded into each well of 96-well microplates and cultivated for 15˜24 hours to reach a confluence of 20˜30% and were then exposed to drugs at concentrations ranging from 1 nM to 10 μM. At the endpoint, 20 μL of a MTT stock solution in DMSO (5 mg/mL) was added to each well that contains […] of DMEM. The microplates were left in the cell culture incubator for 3˜4 h before subjected to solubilization and determination of formazan at A570 in a microplate reader (BioTek ELX808iu). […] Therefore, these compounds might hold a broad utility in the treatment of a large variety of human malignancies.

[21] = test system: lung cancer cell line NCI-H460; experiment: MTT assay of cellular proliferation, NCI-H460; format: cell-based; settings: Homo sapiens, read-out: EC50: Concentration that inhibits 50% of proliferation
Experimental: as §3, §4

[22] = test system: glioblastoma cell line T98G; experiment: MTT assay of cellular proliferation, T98G; format: cell-based; settings: Homo sapiens, read-out: EC50: Concentration that inhibits 50% of proliferation
Experimental: as §3, §4

[23] = test system: glioblastoma cell line T98G; experiment: Minimal effective concentration that elicits polyploidy, T98G; format: cell-based, human
[24] = test system: lung cancer cell line NCI-H2170; experiment: MTT assay of cellular proliferation, NCI-H2170; format: cell-based; settings: Homo sapiens, read-out: EC50: Concentration that inhibits 50% of proliferation
Experimental: as §3, §4

[25] = test system: lung cancer cell line NCI-H2170; experiment: Minimal effective concentration that elicits polyploidy, NCI-H2170; format: cell-based, human
[26] = test system: lung cancer cell line NCI-H460; experiment: Minimal effective concentration that elicits polyploidy, NCI-H460; format: cell-based, human
[27] = test system: prostate cancer cell line DU145; experiment: MTT assay of cellular proliferation, DU145; format: cell-based; settings: Homo sapiens, DU-145, read-out: EC50: Concentration that inhibits 50% of proliferation
Experimental: as §3, §4

[28] = test system: lung cancer cell line Calu-6; experiment: Minimal effective concentration that elicits polyploidy, Calu-6; format: cell-based, human
[29] = test system: lung cancer cell line Calu-6; experiment: MTT assay of cellular proliferation, Calu-6; format: cell-based; settings: Homo sapiens, read-out: EC50: Concentration that inhibits 50% of proliferation
Experimental: as §3, §4

[30] = test system: prostate cancer cell line DU145; experiment: Minimal effective concentration that elicits polyploidy, DU145; format: cell-based, human
[31] = test system: lung cancer cell line NCI-H596; experiment: Minimal effective concentration that elicits polyploidy, NCI-H596; format: cell-based, human

SMILES | minimal effective concentration [1] | minimal effective concentration [2] | minimal effective concentration (RPEMYC^H2B-GFP cells [3]) | minimal effective concentration [4] | EC50 [5] | tumor growth (tumor volume) [6] | EC50 [7] | tumor growth (tumor volume) [8] | minimal effective concentration (SW480) | minimal effective concentration [9] | minimal effective concentration [10] | EC50 [11] | EC50 [12] | EC50 [13] | minimal effective concentration [14] | minimal effective concentration (RPEMYC^H2B-GFP cells [15]) | minimal effective concentration [16] | EC50 [17] | EC50 [18] | EC50 [19] | other results
COc1cc(Oc2ncccc2-c2ccncc2)cc(C(F)(F)F)c1 [Compound 9, 2-(3-methoxy-5-(trifluoromethyl)phenoxy)-3,4′-bipyridine] | 0.001 to 1 µM | 0.001 to 1 µM | 1 µM | 0.001 to 1 µM | 1 to 1000 nM | suppress the growth; also recorded: suppressing the tumor growth; also recorded: eliciting tumor regression | 1 to 1000 nM | suppress the growth; also recorded: suppressing the tumor growth; also recorded: eliciting tumor regression | 0.001 to 1 µM | 0.001 to 1 µM | 0.001 to 1 µM | 1 to 1000 nM | 1 to 1000 nM | 1 to 1000 nM | 0.001 to 1 µM | 1 µM | 0.001 to 1 µM | 1 to 1000 nM | 1 to 1000 nM | 1 to 1000 nM | 
COc1cc(Oc2ncccc2-c2ccncc2)cc(-n2cccn2)c1 [Compound 10, 2-(3-methoxy-5-(1H-pyrazol-1-yl)phenoxy)-3,4′-bipyridine] | 0.001 to 1 µM | 0.001 to 1 µM | 1 µM | 0.001 to 1 µM | 1 to 1000 nM | suppress the growth; also recorded: suppressing the tumor growth | 1 to 1000 nM | suppress the growth; also recorded: suppressing the tumor growth | 0.001 to 1 µM | 0.001 to 1 µM | 0.001 to 1 µM | 1 to 1000 nM | 1 to 1000 nM | 1 to 1000 nM | 0.001 to 1 µM | 1 µM | 0.001 to 1 µM | 1 to 1000 nM | 1 to 1000 nM | 1 to 1000 nM | 
COc1cc(OC)cc(Oc2ncccc2-c2ccnc(N)n2)c1 [Compound 19, 4-(2-(3,5-dimethoxyphenoxy)pyridin-3-yl)pyrimidin-2-amine] | 0.001 to 1 µM | 1 to 10 µM | 1 µM | 0.001 to 1 µM | 1 to 1000 nM |  |  |  |  | 0.001 to 1 µM | 0.001 to 1 µM | 1 to 1000 nM | 1 to 1000 nM | 1 to 1000 nM | 0.001 to 1 µM | 1 µM | 0.001 to 1 µM | 1000 to 10000 nM | 1 to 1000 nM | 1 to 1000 nM | EC50 [20]: 1 to 1000 nM; EC50 [21]: 1000 to 10000 nM; EC50 [22]: 1 to 1000 nM; MECP: Minimal effective concentration that elicits polyploidy [23]: A (A: 1 nM < conc. ≤ 1 μM); EC50 [24]: 1 to 1000 nM; MECP: Minimal effective concentration that elicits polyploidy [25]: A (A: 1 nM < conc. ≤ 1 μM); MECP: Minimal effective concentration that elicits polyploidy [26]: A (A: 1 nM < conc. ≤ 1 μM); EC50 [27]: 1000 to 10000 nM; MECP: Minimal effective concentration that elicits polyploidy [28]: A (A: 1 nM < conc. ≤ 1 μM); EC50 [29]: 1 to 1000 nM; MECP: Minimal effective concentration that elicits polyploidy [30]: B (B: 1 μM < conc. ≤ 10 μM); MECP: Minimal effective concentration that elicits polyploidy [31]: A (A: 1 nM < conc. ≤ 1 μM)
